Here are results for six molecules from paper PMC11224282, “Insight into binding of endogenous neurosteroid ligands to the sigma-1 receptor” (Nature Communications, 2024).

For one data set, the target named is σ1R. The note with it: cited from earlier work; for Ki: inhibition of radioligand (e.g. [3H]SKF-10,047) binding to σ1R.
In the next data set the target is T1, xlσ1R wild-type (Xenopus laevis, UniProt Q6DCU6).
T1 construct: hemagglutinin signal peptide (N); made in house; host or cells: Pichia pastoris GS115
T1 sequence (Q6DCU6 1-221): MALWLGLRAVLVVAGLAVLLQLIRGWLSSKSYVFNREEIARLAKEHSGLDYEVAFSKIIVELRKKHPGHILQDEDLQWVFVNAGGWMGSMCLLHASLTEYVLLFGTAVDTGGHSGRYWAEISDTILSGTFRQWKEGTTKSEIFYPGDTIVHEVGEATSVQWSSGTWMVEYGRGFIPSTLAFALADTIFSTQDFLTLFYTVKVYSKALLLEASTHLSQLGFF
Description: Microscale thermophoresis (MST) binding to xlσ1R wild-type. A general note: In MST a laser heats a spot of the sample, and binding alters the fluorescence response.

The next data set concerns the target T2, xlσ1R E169A (Xenopus laevis, UniProt Q6DCU6, E169A).
T2 construct: hemagglutinin signal peptide (N); made in house; host or cells: Pichia pastoris GS115
T2 sequence (Q6DCU6 1-221 E169A): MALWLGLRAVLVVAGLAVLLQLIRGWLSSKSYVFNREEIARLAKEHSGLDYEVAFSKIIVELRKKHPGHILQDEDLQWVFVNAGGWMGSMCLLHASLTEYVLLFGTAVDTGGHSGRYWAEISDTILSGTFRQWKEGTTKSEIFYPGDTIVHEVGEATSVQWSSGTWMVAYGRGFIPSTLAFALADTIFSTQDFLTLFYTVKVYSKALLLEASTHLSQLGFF
Description: Microscale thermophoresis (MST) binding to xlσ1R E169A mutant.

Data set [1] deals with the molecule itself. The data set is described as follows: crystal structure; sitting-drop vapour diffusion at 20 °C; 0.32 M LiCl, 0.1 M sodium citrate pH 5.5, 12% PEG 4000, 10% glycerol, 15 mM sodium cholate; protein in OG/CHS; no ligand added, or with 1 mM progesterone or 1 mM DHEAS; space groups I432 (trimer by crystal symmetry) and C2 (two trimers in the asymmetric unit).

Counter-ions that a name gives are not always drawn. Like-named read-outs stand apart in the source and are kept apart here.

Turning to `C[C@]12CC[C@H](O)CC1=CC[C@@H]1[C@@H]2CC[C@]2(C)C(=O)CC[C@@H]12` [DHEA, dehydroepiandrosterone], the Ki result at σ1R is “micromolar range or more”.
As to `CC12CCC3C(CC=C4CC(OS(=O)(=O)O)CCC43C)C1CCC2=O` (stereo not drawn) [DHEAS, dehydroepiandrosterone sulfate], the Kd (in general, the free concentration of one partner at which half of the binding sites on the other are occupied at equilibrium, for simple one-to-one binding) was 18 ± 2.5 µM on xlσ1R wild-type (read-out: Kd (mean), MST, wild-type xlσ1R, N = 3, mean (± SD)); 18 µM at xlσ1R wild-type (read-out: Kd Mean, Source Data sheet Supplementary Table 3, wild-type, mean of 3); 17.2 µM at xlσ1R wild-type (read-out: Kd Repeat 1, Source Data sheet Supplementary Table 3, wild-type, repeat 1); 15.9 µM on xlσ1R wild-type (read-out: Kd Repeat 2, Source Data sheet Supplementary Table 3, wild-type, repeat 2); 20.8 µM at xlσ1R wild-type (read-out: Kd Repeat 3, Source Data sheet Supplementary Table 3, wild-type, repeat 3); 456 ± 17 µM at xlσ1R E169A (read-out: Kd (mean), MST, xlσ1R E169A, N = 3, mean (± SD)). In addition, the Kd on xlσ1R E169A (read-out: Kd Mean, Source Data sheet Supplementary Table 3, E169A, mean of 3) amounted to 456 µM; at xlσ1R E169A (read-out: Kd Repeat 1, Source Data sheet Supplementary Table 3, E169A, repeat 1), 471 µM; at xlσ1R E169A (read-out: Kd Repeat 2, Source Data sheet Supplementary Table 3, E169A, repeat 2), 438 µM; at xlσ1R E169A (read-out: Kd Repeat 3, Source Data sheet Supplementary Table 3, E169A, repeat 3) it was 460 µM. Moreover, the Ki result on σ1R is given as “micromolar range or more”.
As to `CCCCCCCCO[C@@H]1O[C@H](CO)[C@@H](O)[C@H](O)[C@H]1O` [OG, octyl-β-D-glucopyranoside], on xlσ1R wild-type (MST binding assay, xlσ1R, printed only in peer review file, OG data removed from final manuscript, read-out: Kd), the dissociation constant Kd is 8300 ± 2700 µM.
Take `CC(=O)[C@H]1CC[C@H]2[C@@H]3CCC4=CC(=O)CC[C@]4(C)[C@H]3CC[C@]12C` [progesterone]: the Kd at xlσ1R wild-type (MST, wild-type xlσ1R, N = 3, mean (± SD), read-out: Kd (mean)) was 0.94 ± 0.22 µM; at xlσ1R wild-type (Source Data sheet Supplementary Table 3, wild-type, repeat 1, read-out: Kd Repeat 1), 0.71 µM; on xlσ1R wild-type (Source Data sheet Supplementary Table 3, wild-type, repeat 2, read-out: Kd Repeat 2) it was 0.96 µM; on xlσ1R wild-type (Source Data sheet Supplementary Table 3, wild-type, repeat 3, read-out: Kd Repeat 3), 1.14 µM. Moreover, the “affinity for σ1R” value in the data set with σ1R is given as “in μM range”. Further, the Ki entry at σ1R was “submicromolar range”.
On to pregnenolone sulfate, for which, at σ1R, the Ki entry is recorded as “micromolar range or more”.

B1: sigma-1 receptor from Xenopus laevis (xlσ1R), wild type, purification tag removed (receptor)
chain: MALWLGLRAVLVVAGLAVLLQLIRGWLSSKSYVFNREEIARLAKEHSGLDYEVAFSKIIVELRKKHPGHILQDEDLQWVFVNAGGWMGSMCLLHASLTEYVLLFGTAVDTGGHSGRYWAEISDTILSGTFRQWKEGTTKSEIFYPGDTIVHEVGEATSVQWSSGTWMVEYGRGFIPSTLAFALADTIFSTQDFLTLFYTVKVYSKALLLEASTHLSQLGFF
notes: sigma-1 receptor, Xenopus laevis, NCBI NP_001087013.1, wild type; the simulation methods speak of residues 1-33 (transmembrane helix) and 34-219 of the crystal model; Cloned in a modified pPICZ plasmid after a hemagglutinin signal peptide, a decahistidine tag and a TEV protease site; the tag was removed by TEV protease before crystallisation; also called xlσ1R_(unknown-lig); xlσ1R_(prog-co); not …
For B1, the stoichiometry N – broadly, a count of units in the complex or per binding partner – in data set [1] stood at 3.
